From PubChem BioAssay (NCI)
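GI50 is the concentration that inhibits growth by half. TGI denotes the concentration required for complete inhibition of growth.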

Key:
Test in all cases: DTP human tumour cell line panel, 384-well format
[1] = test system: 786-0 renal
[2] = test system: ACHN renal
[3] = test system: CAKI-1 renal
[4] = test system: CCRF-CEM leukemia
[5] = test system: COLO 205 colon
[6] = test system: DU-145 prostate
[7] = test system: EKVX NSCLC
[8] = test system: HCC-2998 colon
[9] = test system: HCT-15 colon
[10] = test system: HL-60(TB) leukemia
[11] = test system: HOP-62 NSCLC
[12] = test system: HOP-92 NSCLC
[13] = test system: HS 578T breast
[14] = test system: HT29 colon
[15] = test system: IGROV1 ovarian
[16] = test system: K-562 leukemia
[17] = test system: KM12 colon
[18] = test system: LOX IMVI melanoma
[19] = test system: M14 melanoma
[20] = test system: MALME-3M melanoma
[21] = test system: MCF7 breast
[22] = test system: MDA-MB-435 melanoma
[23] = test system: MDA-MB-468 breast
[24] = test system: MOLT-4 leukemia
[25] = test system: NCI-H226 lung
[26] = test system: NCI-H322M lung
[27] = test system: NCI-H460 NSCLC
[28] = test system: NCI-H522 lung
[29] = test system: OVCAR-3 ovarian
[30] = test system: OVCAR-4 ovarian
[31] = test system: OVCAR-5 ovarian
[32] = test system: OVCAR-8 ovarian
[33] = test system: PC-3 prostate
[34] = test system: RPMI-8226 leukemia
[35] = test system: RXF 393 renal
[36] = test system: SF-295 CNS
[37] = test system: SF-539 CNS
[38] = test system: SK-MEL-2 melanoma
[39] = test system: SK-MEL-28 melanoma
[40] = test system: SK-MEL-5 melanoma
[41] = test system: SN12C renal
[42] = test system: SNB-19 CNS
[43] = test system: SNB-75 CNS
[44] = test system: SW-620 colon
[45] = test system: T-47D breast
[46] = test system: U251 glioblastoma
[47] = test system: UACC-257 melanoma

`C[C@@H]1CN(CC(=O)N2CC(C)(C)c3nc(CO)c(Cc4ccc(F)cc4)cc32)[C@@H](CN2CCOC[C@H]2C)CN1` showed a GI50 [1] of 20.4 µM, a TGI [1] of 42.2 µM and a GI50 [2] of 61.8 µM. For the same molecule, the TGI [2] was > 100 µM, the GI50 [3] was 27.9 µM and the TGI [3] was 54 µM. For the same molecule, the GI50 [4] was 16.1 µM, the TGI [4] was 42.7 µM and the GI50 [5] was 20.5 µM. For the same molecule, the TGI [5] was 47 µM, the GI50 [6] was > 73.5 µM and the TGI [6] was > 100 µM. The GI50 [7] was 29.9 µM, the TGI [7] was > 88.8 µM and the GI50 [8] was 15.8 µM. The TGI [8] was 29.8 µM, the GI50 [9] was 27.7 µM and the TGI [9] was > 83.3 µM. It also gave a GI50 [10] of 4.54 µM, a TGI [10] of 18.9 µM and a GI50 [11] of 17.9 µM. For the same molecule, the TGI [11] was > 61.2 µM, the GI50 [12] was 14.6 µM and the TGI [12] was 43.8 µM. The GI50 [13] was 7.75 µM, the TGI [13] was > 67.2 µM and the GI50 [14] was 19.3 µM. The TGI [14] was 36.7 µM, the GI50 [15] was 61.4 µM and the TGI [15] was > 100 µM. It also gave a GI50 [16] of 16.8 µM, a TGI [16] of 30.9 µM and a GI50 [17] of 28.2 µM. It also gave a TGI [17] of 63.8 µM, a GI50 [18] of 17.6 µM and a TGI [18] of 31.5 µM. It also gave a GI50 [19] of 17.2 µM, a TGI [19] of 31.1 µM and a GI50 [20] of 41.1 nM. For the same molecule, the TGI [20] was 2610 nM, the GI50 [21] was 35.2 µM and the TGI [21] was 79.5 µM. For the same molecule, the GI50 [22] was 47 µM, the TGI [22] was > 100 µM and the GI50 [23] was 483 nM. The TGI [23] was 14.8 µM, the GI50 [24] was 18.5 µM and the TGI [24] was 35.6 µM. The GI50 [25] was 40.4 µM, the TGI [25] was > 82.3 µM and the GI50 [26] was 33.5 µM. The TGI [26] was > 73.1 µM, the GI50 [27] was 26 µM and the TGI [27] was 56.1 µM. It also gave a GI50 [28] of 14.2 µM, a TGI [28] of 32.4 µM and a GI50 [29] of 42.5 µM. For the same molecule, the TGI [29] was > 83.1 µM, the GI50 [30] was 15 nM and the TGI [30] was 112 nM. It also gave a GI50 [31] of 38.7 µM, a TGI [31] of 99.8 µM and a GI50 [32] of 17.7 µM. The TGI [32] was 47.8 µM, the GI50 [33] was 65.2 µM and the TGI [33] was > 100 µM. The GI50 [34] was 23.1 µM, the TGI [34] was 38 µM and the GI50 [35] was 175 nM. For the same molecule, the TGI [35] was 6.79 µM, the GI50 [36] was 42 µM and the TGI [36] was > 81.4 µM. For the same molecule, the GI50 [37] was 32.4 µM, the TGI [37] was 67.2 µM and the TGI [38] was 14.6 µM. The GI50 [39] was 14.1 µM, the TGI [39] was 33.3 µM and the GI50 [40] was 1410 nM. For the same molecule, the TGI [40] was 20.2 µM, the GI50 [41] was > 79 µM and the TGI [41] was > 100 µM. The GI50 [42] was 99.7 µM, the TGI [42] was > 100 µM and the GI50 [43] was 16.3 µM. It also gave a TGI [43] of 41.6 µM, a GI50 [44] of 53.5 µM and a TGI [44] of 97.4 µM. It also gave a GI50 [45] of 22.4 µM, a TGI [45] of 49 µM and a GI50 [46] of 28.1 µM. It also gave a TGI [46] of 62.4 µM, a GI50 [47] of 16.1 µM and a TGI [47] of 29.7 µM.
